In patent US10239882B2, “Substituted 5-methyl-[1,2,4]triazolo[1,5-a]pyrimidin-2-amine compounds as PDE2 inhibitors” (DART NEUROSCIENCE (CAYMAN) LTD., priority 2014, dated 2019):

Each compound was assayed against FLAG-tagged PDE2A1 (amino acids 2-941) (Homo sapiens (Human), UniProt O00408) (assay: IMAP TR-FRET PDE2A enzymatic assay). Details: 200 nM FAM-cAMP substrate, 11-point half-log dose-response.
Sequence of FLAG-tagged PDE2A1 (amino acids 2-941) (O00408 2-941): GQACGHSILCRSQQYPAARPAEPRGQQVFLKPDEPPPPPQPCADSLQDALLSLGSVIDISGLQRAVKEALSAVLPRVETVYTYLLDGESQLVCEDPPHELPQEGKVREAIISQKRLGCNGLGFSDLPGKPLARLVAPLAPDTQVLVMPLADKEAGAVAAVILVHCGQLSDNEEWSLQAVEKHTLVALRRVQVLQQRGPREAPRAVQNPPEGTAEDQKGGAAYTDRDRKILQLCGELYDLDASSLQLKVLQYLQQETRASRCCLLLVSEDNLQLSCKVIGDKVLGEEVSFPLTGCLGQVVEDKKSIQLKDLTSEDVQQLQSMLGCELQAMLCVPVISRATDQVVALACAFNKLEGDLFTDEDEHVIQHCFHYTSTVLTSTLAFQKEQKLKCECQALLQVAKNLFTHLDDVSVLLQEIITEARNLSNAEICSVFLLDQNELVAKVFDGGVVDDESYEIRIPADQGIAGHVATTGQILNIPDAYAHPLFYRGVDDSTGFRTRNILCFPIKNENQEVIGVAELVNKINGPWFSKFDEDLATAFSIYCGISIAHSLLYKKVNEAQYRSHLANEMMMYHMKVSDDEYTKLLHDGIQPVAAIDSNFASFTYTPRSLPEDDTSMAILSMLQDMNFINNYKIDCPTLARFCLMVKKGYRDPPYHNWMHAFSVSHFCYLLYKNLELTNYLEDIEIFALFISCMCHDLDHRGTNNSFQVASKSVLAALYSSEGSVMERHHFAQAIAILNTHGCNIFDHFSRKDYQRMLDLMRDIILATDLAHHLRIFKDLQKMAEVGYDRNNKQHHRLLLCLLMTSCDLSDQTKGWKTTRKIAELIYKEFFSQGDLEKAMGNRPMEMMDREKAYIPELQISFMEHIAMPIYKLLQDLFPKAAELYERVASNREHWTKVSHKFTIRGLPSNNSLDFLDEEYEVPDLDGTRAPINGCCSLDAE
Format: biochemical
Excerpt: An IMAP TR-FRET-based phosphodiesterase assay was developed using the PDE2A isoform. IMAP technology is based on high-affinity binding of phosphate by immobilized metal (MIII) coordination complexes on nanoparticles. The IMAP “binding reagent” recognizes phosphate groups on AMP or GMP generated from cAMP or cGMP in a PDE reaction. Cyclic nucleotides that carry a phosphodiester bond and not a free phosphate are not recognized by the binding reagent. The time resolved fluorescence resonance energy transfer (TR-FRET) is afforded by a Terbium (Tb)-Donor pre-bound to the nanoparticles. FRET occurs when the fluorescent-labeled AMP or GMP product of a PDE reaction binds and comes into close proximity to the Tb-Donor complex. Due to the long lifetime of Tb fluorescence, detection can be run in time-resolved mode to reduce or eliminate interference from auto-fluorescent compounds.
The IMAP TR-FRET PDE2A assay was performed in 1536-well white plates. A total of 250 pg per well of FLAG-tagged PDE2A1 (amino acids 2-941) was dispensed in 2.5 μL IMAP assay buffer consisting of 10 mM Tris pH 7.2, 10 mM MgCl2, 1 mM DTT, and 0.1% fatty acid free BSA. 30 nL of compound was then added from 1 mM stocks in DMSO using a Kalypsys Pintool. Plates were incubated for 5 min at room temperature before dispensing 1.5 μL of 533 nM FAM-cAMP substrate for a final concentration of 200 nM. Following a brief centrifugation, plates were incubated for 30 min at room temperature. The assay was terminated by adding 5 μL IMAP binding reagent Tb complex to each well which was prepared according to manufacturer's recommendations (Molecular Devices). Plates were incubated an additional 90 minutes at room temperature and read on a Viewlux plate reader. All compounds were solvated at a concentration of 10 mM in DMSO and tested in 11-point half-log dose-response. Curve fitting and IC50 values were determined using a standard four parameter fit.
For Cc1cc(C2CCOCC2)n2nc(NCc3ccc4c(c3)CCO4)nc2n1 [Example 42, N-(2,3-Dihydro-1-benzofuran-5-ylmethyl)-5-methyl-7-(oxan-4-yl)-[1,2,4]triazolo[1,5-a]pyrimidin-2-amine], the “PDE2 (PIC50)” value was over 7. With Cc1cc(C2CCOCC2)n2nc(NCc3ccnc(C(F)F)c3)nc2n1 [Example 52, N-{[2-(Difluoromethyl)pyridin-4-yl]methyl}-5-methyl-7-(oxan-4-yl)-[1,2,4]triazolo[1,5-a]pyrimidin-2-amine] the “PDE2 (PIC50)” value was over 7. COc1ccc(CNc2nc3nc(C)cc(C4CCOCC4)n3n2)c(F)c1 [Example 15, N-[(2-Fluoro-4-methoxyphenyl)methyl]-5-methyl-7-(oxan-4-yl)-[1,2,4]triazolo[1,5-a]pyrimidin-2-amine] was tested, and the “PDE2 (PIC50)” value was over 7. Cc1cc(C2CCOCC2)n2nc(NCc3cccc(C(F)F)c3)nc2n1 [Example 23, N-{[3-(Difluoromethyl)phenyl]methyl}-5-methyl-7-(oxan-4-yl)-[1,2,4]triazolo[1,5-a]pyrimidin-2-amine] was tested, and the “PDE2 (PIC50)” value was over 7. In the case of Cc1cc(C2CCOCC2)n2nc(NCc3cnn(-c4ccccc4)c3)nc2n1 [Example 17, 5-Methyl-7-(oxan-4-yl)-N-[(1-phenyl-1H-pyrazol-4-yl)methyl]-[1,2,4]triazolo[1,5-a]pyrimidin-2-amine], the “PDE2 (PIC50)” value is reported as over 7. For Cc1cc(C2CCOCC2)n2nc(NCc3ccnc4ccccc34)nc2n1 [Example 60, 5-Methyl-7-(oxan-4-yl)-N-(quinolin-4-ylmethyl)-[1,2,4]triazolo[1,5-a]pyrimidin-2-amine], the “PDE2 (PIC50)” value was over 7. COc1ccc(CNc2nc3nc(C)cc(C4CCOCC4)n3n2)cc1Cl [Example 21, N-[(3-Chloro-4-methoxyphenyl)methyl]-5-methyl-7-(oxan-4-yl)-[1,2,4]triazolo[1,5-a]pyrimidin-2-amine] was tested, and the “PDE2 (PIC50)” value was over 7. With Cc1cc(C2CCOCC2)n2nc(NCc3cn(C(C)C)nc3C)nc2n1 [Example 66, 5-Methyl-N-{[3-methyl-1-(propan-2-yl)-1H-pyrazol-4-yl]methyl}-7-(oxan-4-yl)-[1,2,4]triazolo[1,5-a]pyrimidin-2-amine] the “PDE2 (PIC50)” value was over 7. Cc1cc(C2CCOCC2)n2nc(NCc3cc(-c4ccccc4)no3)nc2n1 [Example 37, 5-Methyl-7-(oxan-4-yl)-N-[(3-phenyl-1,2-oxazol-5-yl)methyl]-[1,2,4]triazolo[1,5-a]pyrimidin-2-amine] was tested, and the “PDE2 (PIC50)” value was over 7. For Cc1cc(C2CCOC2)n2nc(NCc3cn(-c4ccccc4)nc3C)nc2n1 (stereo not shown) [Example 72, 5-Methyl-N-[(3-methyl-1-phenyl-1H-pyrazol-4-yl)methyl]-7-(oxolan-3-yl)-[1,2,4]triazolo[1,5-a]pyrimidin-2-amine], the “PDE2 (PIC50)” value was over 7. Cc1cc(C2CCOCC2)n2nc(NCc3cc(C(F)(F)F)nn3C)nc2n1 [Example 85, 5-Methyl-N-{[1-methyl-3-(trifluoromethyl)-1H-pyrazol-5-yl]methyl}-7-(oxan-4-yl)-[1,2,4]triazolo[1,5-a]pyrimidin-2-amine] was tested, and the “PDE2 (PIC50)” value was over 7. With Cc1cc(C2CCOCC2)n2nc(NCc3cc(F)cc(Cl)c3)nc2n1 [Example 84, N-[(3-Chloro-5-fluorophenyl)methyl]-5-methyl-7-(oxan-4-yl)-[1,2,4]triazolo[1,5-a]pyrimidin-2-amine] the “PDE2 (PIC50)” value was over 7. Cc1cc(C2CCOCC2)n2nc(NCc3cn(-c4ccccc4)nc3C)nc2n1 [Example 46, 5-Methyl-N-[(3-methyl-1-phenyl-1H-pyrazol-4-yl)methyl]-7-(oxan-4-yl)-[1,2,4]triazolo[1,5-a]pyrimidin-2-amine] was tested, and the “PDE2 (PIC50)” value was over 7.

Same assay, conditions: 200 nM FAM-cAMP substrate, 11-point half-log dose-response, read-out: PDE2 (PIC50)
With Cc1cc(C2CCOCC2)n2nc(NCc3ccc(F)c(F)c3)nc2n1 [Example 56, N-[(3,4-Difluorophenyl)methyl]-5-methyl-7-(oxan-4-yl)-[1,2,4]triazolo[1,5-a]pyrimidin-2-amine] the IC50 was 100 to 1000 nM. Work on Cc1cc(CNc2nc3nc(C)cc(C4CCOCC4)n3n2)ccn1 [Example 35, 5-Methyl-N-[(2-methylpyridin-4-yl)methyl]-7-(oxan-4-yl)-[1,2,4]triazolo[1,5-a]pyrimidin-2-amine] yielded an IC50 of 100 to 1000 nM. Cc1cc(C2CCOCC2)n2nc(NCc3c(F)cncc3F)nc2n1 [Example 70, N-[(3,5-Difluoropyridin-4-yl)methyl]-5-methyl-7-(oxan-4-yl)-[1,2,4]triazolo[1,5-a]pyrimidin-2-amine] gave an IC50 of 100 to 1000 nM. Compound Cc1cc(C2CC2)n2nc(NCc3cn(-c4ccccc4)nc3C)nc2n1 [Example 63, 7-Cyclopropyl-5-methyl-N-[(3-methyl-1-phenyl-1H-pyrazol-4-yl)methyl]-[1,2,4]triazolo[1,5-a]pyrimidin-2-amine] has an IC50 of 100 to 1000 nM. For COc1ccc([C@H](C)Nc2nc3nc(C)cc(C4CCOCC4)n3n2)cc1 [Example 69, N-[(1S)-1-(4-Methoxyphenyl)ethyl]-5-methyl-7-(oxan-4-yl)-[1,2,4]triazolo[1,5-a]pyrimidin-2-amine], the IC50 was 1000 to 10000 nM. COc1ccc(CNc2nc3nc(C)cc(C4CCC(F)(F)CC4)n3n2)cc1 [Example 22, 7-(4,4-Difluorocyclohexyl)-N-[(4-methoxyphenyl)methyl]-5-methyl-[1,2,4]triazolo[1,5-a]pyrimidin-2-amine] showed an IC50 of 100 to 1000 nM. Cc1cc(C2CCOCC2)n2nc(NCc3ccccc3)nc2n1 [Example 33, N-Benzyl-5-methyl-7-(oxan-4-yl)-[1,2,4]triazolo[1,5-a]pyrimidin-2-amine] was tested, and the IC50 was 100 to 1000 nM. With Cc1cc(C2CCCC2)n2nc(NCc3ccc4c(c3)CCC4)nc2n1 [Example 5, 7-Cyclopentyl-N-((2,3-dihydro-1H-inden-5-yl)methyl)-5-methyl-[1,2,4]triazolo[1,5-a]pyrimidin-2-amine] the IC50 was 100 to 1000 nM. Cc1cc(C2CCOCC2)n2nc(NCc3cc(F)ccc3F)nc2n1 [Example 49, N-[(2,5-Difluorophenyl)methyl]-5-methyl-7-(oxan-4-yl)-[1,2,4]triazolo[1,5-a]pyrimidin-2-amine] gave an IC50 of 100 to 1000 nM. Work on Cc1cc(C2CCOCC2)n2nc(NCc3ccccc3F)nc2n1 [Example 26, N-[(2-Fluorophenyl)methyl]-5-methyl-7-(oxan-4-yl)-[1,2,4]triazolo[1,5-a]pyrimidin-2-amine] yielded an IC50 of 100 to 1000 nM. COc1ccc(CNc2nc3nc(C)cc(C(C)C)n3n2)cc1 [Example 10, 7-Isopropyl-N-(4-methoxybenzyl)-5-methyl-[1,2,4]triazolo[1,5-a]pyrimidin-2-amine] was tested, and the IC50 was 1000 to 10000 nM. CCC(C)c1cc(C)nc2nc(NCc3ccc(OC)cc3)nn12 (stereo not shown) [Example 11, 7-(sec-butyl)-N-(4-Methoxybenzyl)-5-methyl-[1,2,4]triazolo[1,5-a]pyrimidin-2-amine] gave an IC50 of 100 to 1000 nM. For COc1ccc(F)c(CNc2nc3nc(C)cc(C4CCOCC4)n3n2)c1 [Example 32, N-[(2-Fluoro-5-methoxyphenyl)methyl]-5-methyl-7-(oxan-4-yl)-[1,2,4]triazolo[1,5-a]pyrimidin-2-amine], the IC50 was 100 to 1000 nM. COc1ccc(CNc2nc3nc(C)cc(C4CCCO4)n3n2)cc1 (stereo not shown) [Example 12, N-(4-Methoxybenzyl)-5-methyl-7-(tetrahydrofuran-2-yl)-[1,2,4]triazolo[1,5-a]pyrimidin-2-amine] showed an IC50 of 1000 to 10000 nM. Compound COc1ccc([C@@H](C)Nc2nc3nc(C)cc(C4CCOCC4)n3n2)cc1 [Example 64, N-[(1R)-1-(4-Methoxyphenyl)ethyl]-5-methyl-7-(oxan-4-yl)-[1,2,4]triazolo[1,5-a]pyrimidin-2-amine] has an IC50 of 100 to 1000 nM. Work on Cc1cc(C2CCOCC2)n2nc(NCc3ccc4c(c3)OCCO4)nc2n1 [Example 16, N-(2,3-Dihydro-1,4-benzodioxin-6-ylmethyl)-5-methyl-7-(oxan-4-yl)-[1,2,4]triazolo[1,5-a]pyrimidin-2-amine] yielded an IC50 of 100 to 1000 nM. Work on Cc1cc(C2CCOCC2)n2nc(NCc3cc(F)cc(F)c3)nc2n1 [Example 14, N-[(3,5-Difluorophenyl)methyl]-5-methyl-7-(oxan-4-yl)-[1,2,4]triazolo[1,5-a]pyrimidin-2-amine] yielded an IC50 of 100 to 1000 nM. In the case of COc1ccc(CNc2nc3nc(C)cc(C4CCN(C(C)=O)CC4)n3n2)cc1 [Example 18, 1-[4-(2-[(4-Methoxyphenyl)methyl]amino-5-methyl-[1,2,4]triazolo[1,5-a]pyrimidin-7-yl)piperidin-1-yl]ethan-1-one], the IC50 is reported as 100 to 1000 nM. Work on COc1ccc(CNc2nc3nc(C)cc(C4(C)CC4)n3n2)cc1 [Example 75, N-[(4-Methoxyphenyl)methyl]-5-methyl-7-(1-methylcyclopropyl)-[1,2,4]triazolo[1,5-a]pyrimidin-2-amine] yielded an IC50 of 100 to 1000 nM. With COc1ccc(CNc2nc3nc(C)cc(C4CC4)n3n2)cc1 [Example 4, 7-Cyclopropyl-N-(4-methoxybenzyl)-5-methyl-[1,2,4]triazolo[1,5-a]pyrimidin-2-amine] the IC50 was 1000 to 10000 nM. Cc1ccc(F)c(CNc2nc3nc(C)cc(C4CCOCC4)n3n2)c1 [Example 27, N-[(2-Fluoro-5-methylphenyl)methyl]-5-methyl-7-(oxan-4-yl)-[1,2,4]triazolo[1,5-a]pyrimidin-2-amine] was tested, and the IC50 was 100 to 1000 nM.
